Like-named read-outs stand apart in the source and are kept apart here.
Legend:
human orexin-2 receptor = human orexin-2 receptor (Homo sapiens (Human), UniProt O43614); experiment: Human orexin 2 receptor radioligand binding ([3H]-EMPA competition); conditions: read-out: OR-2 Ki
Method in brief: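 Competition binding on HEK293 cells stably expressing human orexin-2 receptor, using 5 nM final [3H]-EMPA in PBS, compounds 0.1 nM to 10 μM (DMSO ≤0.1%). 60 min at room temperature, then filtration and scintillation counting; nonspecific binding defined with 10 μM of a reference antagonist.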

human orexin 1 receptor = human orexin 1 receptor (Homo sapiens (Human), UniProt O43613); experiment: Human orexin 1 receptor radioligand binding ([3H]-SB674042 competition); conditions: read-out: OR-1 Ki
human orexin 1 receptor, sequence (O43613 whole entry): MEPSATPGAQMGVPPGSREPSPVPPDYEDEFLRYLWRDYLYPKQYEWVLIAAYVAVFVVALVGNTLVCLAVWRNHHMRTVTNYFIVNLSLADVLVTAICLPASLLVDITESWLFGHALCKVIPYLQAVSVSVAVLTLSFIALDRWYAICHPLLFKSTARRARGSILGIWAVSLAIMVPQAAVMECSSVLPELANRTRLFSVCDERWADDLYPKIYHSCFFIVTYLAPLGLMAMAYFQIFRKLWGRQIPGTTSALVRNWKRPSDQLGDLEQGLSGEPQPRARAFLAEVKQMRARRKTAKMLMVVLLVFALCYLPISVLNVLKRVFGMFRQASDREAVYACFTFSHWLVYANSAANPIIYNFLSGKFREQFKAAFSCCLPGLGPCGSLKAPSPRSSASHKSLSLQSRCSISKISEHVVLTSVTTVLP
Method in brief: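 CHO cells stably expressing human OX1R incubated 60 min at room temperature with [3H]-SB674042 and compounds (7 concentrations, 0.1 nM–10 μM; DMSO ≤0.1%) in PBS. Nonspecific binding defined with 10 μM of a reference urea antagonist; bound radioactivity measured by filtration and scintillation counting.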

[1] = HEK293 cells stably expressing human orexin-2 receptor, [3H]-EMPA 5 nM final
[2] = CHO cells stably expressing human orexin 1 receptor, [3H]-SB674042 4 nM final

human orexin-2 receptor, sequence (O43614 whole entry): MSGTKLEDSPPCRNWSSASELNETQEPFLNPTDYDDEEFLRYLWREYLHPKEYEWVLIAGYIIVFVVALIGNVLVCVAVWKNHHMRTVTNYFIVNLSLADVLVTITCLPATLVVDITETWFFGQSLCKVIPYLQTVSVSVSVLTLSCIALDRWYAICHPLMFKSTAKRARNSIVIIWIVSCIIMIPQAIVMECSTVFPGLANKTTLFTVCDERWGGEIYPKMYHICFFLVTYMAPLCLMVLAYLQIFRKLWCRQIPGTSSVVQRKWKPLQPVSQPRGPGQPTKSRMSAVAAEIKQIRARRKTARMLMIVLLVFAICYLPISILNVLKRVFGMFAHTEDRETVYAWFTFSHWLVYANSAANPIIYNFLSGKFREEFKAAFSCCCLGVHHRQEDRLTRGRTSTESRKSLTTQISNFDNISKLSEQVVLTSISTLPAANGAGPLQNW

| Ki (human orexin-2 receptor; [1]) | Ki (human orexin 1 receptor; [2]) | Compound | Ki (human orexin 1 receptor) | Ki (human orexin-2 receptor) |
| --- | --- | --- | --- | --- |
| 220 nM | 10000 nM | Cc1cncc(N2C[C@@H]3CCN(C(=O)c4cccc(F)c4-n4nccn4)C[C@@H]32)n1 [Example 110, (1R,6S)-3-{[3-Fluoro-2-(2H-1,2,3-triazol-2-yl)phenyl]carbonyl}-8-(6-methylpyrazin-2-yl)-3,8-diazabicyclo[4.2.0]octane] |  |  |
| 176 nM | 5000 nM | Cc1cncc(N2C[C@@H]3CCN(C(=O)c4cc(F)ccc4-n4nccn4)C[C@@H]32)n1 [Example 111, (1R,6S)-3-{[5-Fluoro-2-(2H-1,2,3-triazol-2-yl)phenyl]carbonyl}-8-(6-methylpyrazin-2-yl)-3,8-diazabicyclo[4.2.0]octane] |  |  |
| 115 nM | 1960 nM | Cc1cncc(N2C[C@@H]3CCN(C(=O)c4ccccc4-n4nccn4)C[C@@H]32)n1 [Example 112, (1R,6S)-8-(6-Methylpyrazin-2-yl)-3-{[2-(2H-1,2,3-triazol-2-yl)phenyl]carbonyl}-3,8-diazabicyclo[4.2.0]octane] |  |  |
| 161 nM | 9000 nM | Cc1cncc(N2C[C@@H]3CCN(C(=O)c4c(F)cccc4-n4nccn4)C[C@@H]32)n1 [Example 113, (1R,6S)-3-{[2-Fluoro-6-(2H-1,2,3-triazol-2-yl)phenyl]carbonyl}-8-(6-methylpyrazin-2-yl)-3,8-diazabicyclo[4.2.0]octane] |  |  |
| 60 nM | 177 nM | O=C(c1ccc(F)cc1-n1nccn1)N1CC[C@H]2CN(c3cnc4ccccc4n3)[C@H]2C1 [Example 115, 2-[(1R,6S)-3-{[4-Fluoro-2-(2H-1,2,3-triazol-2-yl)phenyl]carbonyl}-3,8-diazabicyclo[4.2.0]oct-8-yl]quinoxaline] |  |  |
| 28 nM | 23 nM | O=C(c1cccc(F)c1-n1nccn1)N1CC[C@H]2CN(c3cnc4ccccc4n3)[C@H]2C1 [Example 116, 2-[(1R,6S)-3-{[3-Fluoro-2-(2H-1,2,3-triazol-2-yl)phenyl]carbonyl}-3,8-diazabicyclo[4.2.0]oct-8-yl]quinoxaline] |  |  |
| 18 nM | 23 nM | O=C(c1c(F)cccc1-n1nccn1)N1CC[C@H]2CN(c3cnc4ccccc4n3)[C@H]2C1 [Example 117, 2-[(1R,6S)-3-{[2-Fluoro-6-(2H-1,2,3-triazol-2-yl)phenyl]carbonyl}-3,8-diazabicyclo[4.2.0]oct-8-yl]quinoxaline] |  |  |
| 40 nM | 33 nM | O=C(c1cc(F)ccc1-n1nccn1)N1CC[C@H]2CN(c3cnc4ccccc4n3)[C@H]2C1 [Example 118, 2-[(1R,6S)-3-{[5-Fluoro-2-(2H-1,2,3-triazol-2-yl)phenyl]carbonyl}-3,8-diazabicyclo[4.2.0]oct-8-yl]quinoxaline] |  |  |
| 17 nM | 32 nM | O=C(c1ccccc1-n1nccn1)N1CC[C@H]2CN(c3nc4cc(Cl)ccc4o3)[C@H]2C1 [Example 119, 5-Chloro-2-[(1R,6S)-3-{[2-(2H-1,2,3-triazol-2-yl)phenyl]carbonyl}-3,8-diazabicyclo[4.2.0]oct-8-yl]-1,3-benzoxazole] |  |  |
| 26 nM | 43 nM | O=C(c1c(F)cccc1-n1nccn1)N1CC[C@H]2CN(c3nc4cc(Cl)ccc4o3)[C@H]2C1 [Example 120, 5-Chloro-2-[(1R,6S)-3-{[2-fluoro-6-(2H-1,2,3-triazol-2-yl)phenyl]carbonyl}-3,8-diazabicyclo[4.2.0]oct-8-yl]-1,3-benzoxazole] |  |  |
| 59 nM | 128 nM | O=C(c1ccc(F)cc1-n1nccn1)N1CC[C@H]2CN(c3nc4cc(Cl)ccc4o3)[C@H]2C1 [Example 122, 5-Chloro-2-[(1R,6S)-3-{[4-fluoro-2-(2H-1,2,3-triazol-2-yl)phenyl]carbonyl}-3,8-diazabicyclo[4.2.0]oct-8-yl]-1,3-benzoxazole] |  |  |
| 45 nM | 95 nM | O=C(c1cccc(F)c1-n1nccn1)N1CC[C@H]2CN(c3nc4cc(Cl)ccc4o3)[C@H]2C1 [Example 123, 5-Chloro-2-[(1R,6S)-3-{[3-fluoro-2-(2H-1,2,3-triazol-2-yl)phenyl]carbonyl}-3,8-diazabicyclo[4.2.0]oct-8-yl]-1,3-benzoxazole] |  |  |
| 92 nM | 4150 nM | Cc1cccc(N2C[C@@H]3CCN(C(=O)c4c(F)cccc4-n4nccn4)C[C@@H]32)n1 [Example 124, (1R,6S)-3-{[2-Fluoro-6-(2H-1,2,3-triazol-2-yl)phenyl]carbonyl}-8-(6-methylpyridin-2-yl)-3,8-diazabicyclo[4.2.0]octane] |  |  |
| 73 nM | 3300 nM | Cc1cccc(N2C[C@@H]3CCN(C(=O)c4ccccc4-n4nccn4)C[C@@H]32)n1 [Example 125, (1R,6S)-8-(6-Methylpyridin-2-yl)-3-{[2-(2H-1,2,3-triazol-2-yl)phenyl]carbonyl}-3,8-diazabicyclo[4.2.0]octane] |  |  |
| 149 nM | 5470 nM | Cc1cccc(N2C[C@@H]3CCN(C(=O)c4cc(F)ccc4-n4nccn4)C[C@@H]32)n1 [Example 126, (1R,6S)-3-{[5-Fluoro-2-(2H-1,2,3-triazol-2-yl)phenyl]carbonyl}-8-(6-methylpyridin-2-yl)-3,8-diazabicyclo[4.2.0]octane] |  |  |
| 210 nM | 10000 nM | Cc1ccnc(N2C[C@@H]3CCN(C(=O)c4cc(F)ccc4-n4nccn4)C[C@@H]32)c1 [Example 127, (1R,6S)-3-{[5-Fluoro-2-(2H-1,2,3-triazol-2-yl)phenyl]carbonyl}-8-(4-methylpyridin-2-yl)-3,8-diazabicyclo[4.2.0]octane] |  |  |
| 26 nM | 1010 nM | Cc1cc(C)nc(N2C[C@@H]3CCN(C(=O)c4cc(F)ccc4-n4nccn4)C[C@@H]32)c1 [Example 128, (1R,6S)-8-(4,6-Dimethylpyridin-2-yl)-3-{[5-fluoro-2-(2H-1,2,3-triazol-2-yl)phenyl]carbonyl}-3,8-diazabicyclo[4.2.0]octane] |  |  |
| 36 nM | 265 nM | O=C(c1cc(F)ccc1-n1nccn1)N1CC[C@H]2CN(c3cccc(C(F)(F)F)n3)[C@H]2C1 [Example 129, (1R,6S)-3-{[5-Fluoro-2-(2H-1,2,3-triazol-2-yl)phenyl]carbonyl}-8-[6-(trifluoromethyl)pyridin-2-yl]-3,8-diazabicyclo[4.2.0]octane] |  |  |
| 31 nM | 1720 nM | O=C(c1cc(F)ccc1-n1nccn1)N1CC[C@H]2CN(c3cc(C(F)(F)F)ccn3)[C@H]2C1 [Example 130, (1R,6S)-3-{[5-Fluoro-2-(2H-1,2,3-triazol-2-yl)phenyl]carbonyl}-8-[4-(trifluoromethyl)pyridin-2-yl]-3,8-diazabicyclo[4.2.0]octane] |  |  |
| 250 nM | 1600 nM | Cc1ccc(N2C[C@@H]3CCN(C(=O)c4cc(F)ccc4-n4nccn4)C[C@@H]32)nc1 [Example 131, (1R,6S)-3-{[5-Fluoro-2-(2H-1,2,3-triazol-2-yl)phenyl]carbonyl}-8-(5-methylpyridin-2-yl)-3,8-diazabicyclo[4.2.0]octane] |  |  |
| 36 nM | 550 nM | Cc1cc(C)nc(N2C[C@@H]3CCN(C(=O)c4cccc(C)c4-n4cccn4)C[C@@H]32)n1 [Example 133, (1R,6S)-8-(4,6-Dimethylpyrimidin-2-yl)-3-{[3-methyl-2-(1H-pyrazol-1-yl)phenyl]carbonyl}-3,8-diazabicyclo[4.2.0]octane] |  |  |
| 16 nM | 277 nM | COc1ccc(-n2nccn2)c(C(=O)N2CC[C@H]3CN(c4nc(C)cc(C)n4)[C@H]3C2)c1 [Example 134, (1R,6S)-8-(4,6-Dimethylpyrimidin-2-yl)-3-{[5-methoxy-2-(2H-1,2,3-triazol-2-yl)phenyl]carbonyl}-3,8-diazabicyclo[4.2.0]octane] |  |  |
| 275 nM | 10000 nM | Cc1cc(C)nc(N2C[C@@H]3CCN(C(=O)c4nccnc4-c4ccccc4)C[C@@H]32)n1 [Example 137, (1R,6S)-8-(4,6-Dimethylpyrimidin-2-yl)-3-[(3-phenylpyrazin-2-yl)carbonyl]-3,8-diazabicyclo[4.2.0]octane] |  |  |
| 70 nM | 1650 nM | Cc1cc(C)nc(N2C[C@@H]3CCN(C(=O)c4cccc(C)c4-n4ccnn4)C[C@@H]32)n1 [Example 138, (1R,6S)-8-(4,6-Dimethylpyrimidin-2-yl)-3-{[3-methyl-2-(1H-1,2,3-triazol-1-yl)phenyl]carbonyl}-3,8-diazabicyclo[4.2.0]octane] |  |  |

| Compound | Ki (human orexin-2 receptor; [1]) | Ki (human orexin 1 receptor; [2]) | Ki (human orexin 1 receptor) | Ki (human orexin-2 receptor) |
| --- | --- | --- | --- | --- |
| Cc1cncc(N2C[C@@H]3CCN(C(=O)c4ccc(F)cc4-n4nccn4)C[C@@H]32)n1 [Example 114, (1R,6S)-3-{[4-Fluoro-2-(2H-1,2,3-triazol-2-yl)phenyl]carbonyl}-8-(6-methylpyrazin-2-yl)-3,8-diazabicyclo[4.2.0]octane] | 494 nM |  | 10000 nM |  |
| O=C(c1cc(F)ccc1-n1nccn1)N1CC[C@H]2CN(c3nc4cc(Cl)ccc4o3)[C@H]2C1 [Example 121, 5-Chloro-2-[(1R,6S)-3-{[5-fluoro-2-(2H-1,2,3-triazol-2-yl)phenyl]carbonyl}-3,8-diazabicyclo[4.2.0]oct-8-yl]-1,3-benzoxazole] |  | 91 nM |  | 75 nM |
| Cc1cc(C)nc(N2C[C@@H]3CCN(C(=O)c4cccc(C)c4-n4nccn4)C[C@@H]32)n1 [Example 135, (1R,6S)-8-(4,6-Dimethylpyrimidin-2-yl)-3-{[3-methyl-2-(2H-1,2,3-triazol-2-yl)phenyl]carbonyl}-3,8-diazabicyclo[4.2.0]octane] | 15 nM | 135 nM |  |  |

— patent US8680275B2, “Fused heterocyclic compounds as orexin receptor modulators” (Janssen Pharmaceutica NV, priority 2009, dated 2014)
